Source: patent US11287431B2, “Method of testing for pulmonary hypertension” (TOHOKU UNIVERSITY, priority 2014, dated 2022)

System: pulmonary artery smooth muscle cells (PASMC) in idiopathic pulmonary arterial hypertension (IPAH) patients
Assay: Selenoprotein P protein secretion by IPAH-PASMC at hypoxia, western blot of whole cell lysates and conditioned medium
Type: cell-based, human
Conditions: IPAH-PASMC cultured 24 hours at hypoxia (oxygen concentration: 2%) in the presence of fasudil (hydroxyfasudil concentration: 10 μM), versus normoxia and hypoxia alone
Excerpt: The response of pulmonary artery smooth muscle cells (PASMC) in idiopathic pulmonary arterial hypertension (IPAH) patients (hereinafter also referred to as IPAH-PASMC) to hypoxia stimulation was observed.
Primary cell lines were established from pulmonary vascular smooth muscle in idiopathic pulmonary arterial hypertension patients, in accordance with the following document: Ogawa A, Nakamura K, Matsubara H, Fujio H, Ikeda T, Kobayashi K, Miyazaki I, Asanuma M, Miyaji K, Miura D, Kusano K F, Date H, Ohe T, Circulation, 2005; 112: 1806-1812. The pulmonary vascular smooth muscle in idiopathic pulmonary arterial hypertension patients was isolated from pulmonary arteries having an outer diameter of 1.5 mm or less.
IPAH-PASMC was cultured in D-MEM medium supplemented by 10% FBS (fetal bovine serum) at 37° C. under constant temperature and constant humidity conditions at 95% air and 5% CO2 in accordance with a usual method. In this test, passage 4 to 7 cells at a confluence of 70 to 80% were used. […]
After culturing, whole cell lysates and a conditioned medium were prepared for each sample, and selenoprotein P protein was detected by western blot analysis.

O=S(=O)(c1cccc2cnccc12)N1CCCNCC1 [fasudil]
extracellular secretion of selenoprotein P protein (into the medium): enhanced secretion of selenoprotein P protein was not observed
